How the values were obtained:
[1] = test system: RARγ receptors relative to RARα receptors; assay: dissociation constants for RAR receptors (standard tests from cited references); type: binding, human; conditions: selectivity for RARγ relative to RARα
Protocol: The dissociation constants are determined by means of tests which are standard to those skilled in the art. These tests are described in particular in the following references: (1) “Selective Synthetic Ligands for Nuclear Retinoic Acid Receptor Subtypes” in RETINOIDS, Progress in Research and Clinical Applications, Chapter 19 (pp 261-267), Marcel Dekker Inc., published by Maria A. Livrea and Lester Packer; (2) “Synthetic Retinoids: Receptor Selectivity and Biological Activity” in Pharmacol. Skin, Basle, Karger, 1993, Volume 5, pp. 117-127; (3) “Selective Synthetic Ligands for Human Nuclear Retinoic Acid Receptors” in Skin Pharmacology, 1992, Vol. 5, pp. 57-65; (4) “Identification of Synthetic Retinoids with Selectivity for Human Nuclear Retinoic Acid Receptor-γ” in Biochemical and Biophysical Research Communications, Vol. 186, No. 2, July 1992, pp. 977-983; (5) “Selective High Affinity RAR-α or RAR-β Retinoic Acid Receptor Ligands” in Mol. Pharmacol., Vol. 40, pp. 556-562.
In an advantageous manner, the retinoids which are selective for the RARγ receptors relative to the RARα receptors have an RARα/RARγ dissociation constant ratio greater than or equal to 8.

keratinocytes = assay: keratinocyte proliferation, XTT assay (Cell proliferation kit II); type: cell-based
Protocol: The keratinocytes were obtained from a specimen of skin obtained from plastic surgery. They are used at the second passage. The cells are cultured at 37° C. in a humid atmosphere in the presence of 5% CO2 according to the method of Rheinwald and Green in the presence of 3T3 fibroblasts treated with mitomycin in MEM medium containing 10% (v/v) foetal calf serum (FCS), 0.4 μg/ml of hydrocortisone, 10 ng/ml of EGF (epidermal growth factor) and 10^−9 M chloleratoxin. The 3T3 cells are inoculated 24 h before the keratinocytes at a rate of 15,000 cells per cm^2. Next, the keratinocytes are inoculated at a rate of 4000 cells per cm^2. […] After culturing for 4 days, the cells are harvested in order to determine the proliferation. The cell proliferation is determined using a kit with the reference name “Cell proliferation kit II” (XTT assay) used according to the indications of the manufacturer (Boehringer, ref. 1465 05). It is expressed in absorbance units at 495 nm. The lower the value of the absorbance measured, the more the keratinocyte proliferation has been inhibited.

| Structure (SMILES) | RARα/RARγ dissociation constant ratio [1] | synergism of inhibition on keratinocyte proliferation (keratinocytes; in combination with 1,25-dihydroxyvitamin D3, identical conditions) | inhibition on keratinocyte proliferation (keratinocytes; in combination with 1,25-dihydroxyvitamin D3, 4 days culture, FIGS. 1 and 2) |
| --- | --- | --- | --- |
| CC1(C)CCC(C)(C)c2cc(C(O)C#Cc3ccc(C(=O)O)c(O)c3)ccc21 (centres unmarked) [2-hydroxy-4-[3-hydroxy-3-(5,6,7,8-tetrahydro-5,5,8,8-tetramethyl-2-naphthyl)-1-propynyl]benzoic acid] | 36.6 | – | – |
| COc1ccc(-c2ccc3cc(C(=O)O)ccc3c2)cc1C12CC3CC(CC(C3)C1)C2 [6-[3-(1-adamantyl)-4-methoxyphenyl]-2-naphthoic acid] | 84.4 | – | – |
| CC1=C(/C=C/C(C)=C/C=C/C(C)=C/C(=O)O)C(C)(C)CCC1 [all-trans retinoic acid, reference compound] | – | No synergism | – |
| O=C(O)c1ccc2cc(-c3ccc(O)c(C45CC6CC(CC(C6)C4)C5)c3)ccc2c1 [compound 1, 6-[3-(1-adamantyl)-4-hydroxyphenyl]-2-naphthoic acid] | 8.5 | – | very good inhibition |
